From patent US9546201B2, “MUC-1 cytoplasmic domain peptides as inhibitors of cancer” (DANA-FARBER CANCER INSTITUTE, INC., priority 2008, dated 2017)
Where a SMILES comes first, the peptide text is derived from it. Where no end group is shown, it is not given here. [ ]: non-standard residue; d: D form.

How the values were obtained:
[1] = target: T1, His-MUC1-CD (Homo sapiens, UniProt P15941); assay: BIAcore binding to immobilized His-MUC1-CD; details: data not shown
T1 sequence (P15941 1184-1255): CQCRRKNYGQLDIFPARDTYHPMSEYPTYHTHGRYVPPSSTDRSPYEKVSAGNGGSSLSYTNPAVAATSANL
Protocol: FIGS. 1A-D. MUC1/CQC peptide blocks MUC1 oligomerization. (FIG. 1A) Schematic representation of the MUC1-C subunit and the 72-amino acid sequence of MUC1-CD (SEQ ID NO: 1) are shown. The N-terminal 15 amino acids (shaded sequence; SEQ ID NO: 3) MUC1/CQC (SEQ ID NO: 63) and mutated MUC1/AQA (SEQ ID NO: 60) peptides were synthesized with the poly-dArg transduction domain. (FIG. 1B) His-MUC1-CD (1.4 mg/ml) was immobilized on a sensor chip in a BIAcore. MUC1/CQC was injected over the chip at 10 μM. Raw binding data were analyzed by BIAevaluation software version 3.0 and fit to a 1:1 Languir binding model. (FIG. 1C) Purified His-MUC1-CD (1.5 mg/ml) was incubated with PBS, 200 μM MUC1/CQC or 200 μM MUC1/AQA for 1 h at room temperature. The proteins were separated in a non-reducing SDS-polyacrylamide gel and analyzed by immunoblotting with anti-MUC1-C. (FIG. 1D) 293 cells were transiently transfected to express an empty vector or GFP-MUC1-CD and Flag-MUC1-CD. At 48 h after transfection, the cells were treated with 5 μM MUC1/CQC or MUC1/AQA for 3 d. The cells were then harvested for immunoblotting with anti-MUC1-C (left panel). […]
The MUC1 cytoplasmic domain (MUC1-CD) contains a CQC motif that is necessary for the formation of oligomers and nuclear localization (Leng et al., 2007). […] Purified His-tagged MUC1-CD forms oligomers as detected by electrophoresis in polyacrylamide gels (FIG. 1C). […]

[2] = Body weight of nude mice under peptide administration; format: in vivo
[3] = target: T2, MUC1-C in MCF-7 cells (Homo sapiens, UniProt P15941); assay: Immunoblot of nuclear lysates, MCF-7; format: cell-based; details: MCF-7 nuclear lysates, 5 μM peptide for 3 d
T2 construct: translated as a single polypeptide and cleaved into N- and C-terminal subunits in the endoplasmic reticulum; endogenous in cells; host or cells: ZR-75-1 and MCF-7 human breast cancer cells
T2 sequence (P15941 1098-1255 limits assumed): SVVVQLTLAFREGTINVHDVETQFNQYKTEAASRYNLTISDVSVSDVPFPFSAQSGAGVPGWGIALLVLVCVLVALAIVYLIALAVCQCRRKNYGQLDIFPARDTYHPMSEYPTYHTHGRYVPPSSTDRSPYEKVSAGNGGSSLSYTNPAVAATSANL
Protocol: FIGS. 2A-C. MUC1/CQC peptide blocks nuclear localization of MUC1-C. (FIG. 2A) ZR-75-1 cells were incubated with 5 μM FITC-labeled MUC1/CQC peptide for the indicated times and then analyzed by flow cytometry. The mean fluorescence index (MFI) is included in each of the panels. (FIGS. 2B-C) ZR-75-1 (FIG. 2B) and MCF-7 (FIG. 2C) cells were incubated in the presence of 5 μM MUC1/CQC or MUC1/AQA peptide for 3 d. Whole cell lysates (WCL) (left panels) and nuclear lysates (right panels) were immunoblotted with the indicated antibodies.
Whole cell and nuclear lysates were prepared as described (Leng et al., 2007). Soluble proteins were subjected to immunoprecipitation with anti-Flag (Sigma, St. Louis, Mo.). Immunoprecitates and soluble proteins were analyzed by immunoblotting with anti-His (Cell Signaling Technology, Danvers, Mass.), anti-GFP (Millipore, Danvers, Mass.), anti-Flag, anti-MUC1-C (Abl; NeoMarkers, Fremont, Calif.), anti-lamin B (EMD, La Jolla, Calif.) or anti-β-actin (Sigma). Reactivity was detected with horseradish peroxidase-conjugated second antibodies and chemiluminescence.
Human ZR-75-1 and MCF-7 breast cancer cells overexpress endogenous MUC1, and thus represent potential models for evaluating effects of the MUC1/CQC peptide (Ramasamy et al., 2007). To assess uptake, the ZR-75-1 cells were incubated with 5 μM FITC-MUC1/CQC peptide (FIG. 2A). […]

| Molecule | binding to His-MUC1-CD [1] | effect on weight of the individual mice ([2]; 50 mg/kg IP once each day over 11 d, female nude mice) | effect on bodyweight after stopping administration ([2]; next 28 d after 50 mg/kg IP daily for 11 d, data not shown) | nuclear MUC1-C levels [3] |
| --- | --- | --- | --- | --- |
| MUC1/AQA: control peptide in which the CQC motif was altered to AQA, with poly-dArg transduction domain; SEQ ID NO: 60 ([dR][dR][dR][dR][dR][dR][dR][dR][dR]AQARRKNYGQLDIFP) [reference compound] | no apparent binding | – | – | – |
| CC[C@H](C)[C@H](NC(=O)[C@H](CC(=O)O)NC(=O)[C@H](CC(C)C)NC(=O)[C@H](CCC(N)=O)NC(=O)CNC(=O)[C@H](Cc1ccc(O)cc1)NC(=O)[C@H](CC(N)=O)NC(=O)[C@H](CCCCN)NC(=O)[C@H](CCCNC(=N)N)NC(=O)[C@H](CCCNC(=N)N)NC(=O)[C@H](CS)NC(=O)[C@H](CCC(N)=O)NC(=O)[C@H](CS)NC(=O)[C@@H](CCCNC(=N)N)NC(=O)[C@@H](CCCNC(=N)N)NC(=O)[C@@H](CCCNC(=N)N)NC(=O)[C@@H](CCCNC(=N)N)NC(=O)[C@@H](CCCNC(=N)N)NC(=O)[C@@H](CCCNC(=N)N)NC(=O)[C@@H](CCCNC(=N)N)NC(=O)[C@@H](CCCNC(=N)N)NC(=O)[C@H](N)CCCNC(=N)N)C(=O)N[C@@H](Cc1ccccc1)C(=O)N1CCC[C@H]1C(=O)O [MUC1/CQC] (H-[dR][dR][dR][dR][dR][dR][dR][dR][dR]CQCRRKNYGQLDIFP-OH; N-terminus and C-terminus assumed) | – | no apparent effect | no subsequent effect on bodyweight | down-regulation of nuclear MUC1-C levels |
